# Laboratory results from patent US20110027296A1, “ANTIBODIES FOR TREATING CANCER” (UNIVERSIDAD DE BARCELONA, priority 2008, published 2011).
# Bridge positions count the residues as written; N and C are the ends. Square brackets hold non-standard residues; d marks the D form. Peptide text beside a SMILES is read from it. * marks the point of attachment. NH(β-GlcNAc) = CC(=O)N[C@@H]1[C@@H](O)[C@H](O)[C@@H](CO)O[C@H]1N*; Dap = NC[C@H](N)C(=O)O
# How the values were obtained:
# [1] = tested on: BCC; conditions: 1 nM antagonist; cited from earlier work
# [2] = tested on: MDA-MB-231; conditions: cytostatic and not cytotoxic effect; cited from earlier work
# [3] = tested on: cyclin D1, cdk4, cdk2, p21 and p27; experiment: Cell cycle protein expression by Western blot; assay type: cell-based; conditions: 100 nM SP or antibody 1/100 dilution; indicator of proliferative rate
# Protocol: FIG. 1A: For the study of the effect of SP and its inhibition on cell cycle protein expression, cells were treated with 100 nM of SP or antibody anti-SP at 1/100 dilution for 48 hours. The different pattern of protein expression was determined by Western blot. C (control), SP, αSP (anti-SP antibody). FIG. 1B: For the time-course studies cells were treated at the same concentration of antibody for the times indicated. FIG. 1C: The ratio between p27/cyclin D1 (y-axis) was determined as an indicator of the proliferative rate of the cells.
# For the analysis of substance P treatment on HER2 and EGFR activation, cells were seeded on dishes and growth until 80% confluence. […]
# (§1) For protein extraction cells were lysated in ice-cold radioimmunoprecipitation assay buffer (Tris-HCl 50 mM, pH 7.4; NP-40 1%; Na-deoxycholate, 0.25%, NaCl 150 mM; EDTA 1 mM; PMSF 1 mM; proteinase inhibitors; Na3VO4 1 mM and NaF 1 mM) and sonicated for 10 seconds. After centrifugation (13000 g 5 min) supernatants were quantified for protein content. […] Chemiluminiscence of the bands was detected after ECL treatment (Amersham, Piscataway, N.J.) of membranes and subsequent analysis using a Fujifilm LAS3000 imaging system. Different intensities of bands were quantified using Image Gauge software, and correct Mr was compared with pre-stained protein standards (BioRad).
# [4] = tested on: HER2; experiment: HER2 phosphorylation and expression by Western blot in breast cancer cell lines; assay type: cell-based; conditions: SP 100 nM, FIG. 5
# Protocol: In FIG. 5A, to analyze the effects of SP on HER2 activation different BC cell lines were treated with SP at 100 nM for the indicated times (in min). […] In FIG. 5B, for the dose-response study MDA-MB-453 cell line was treated at different times (minutes, x-axis) with 100, 200 or 500 nM of SP, and then activation of HER2 was determined. The results are expressed as a percentage of control (y-axis), and every experiment was done in duplicate.
# In FIG. 6A cells were treated with 500 nM of SP or anti-SP antibody at 1/100 dilution for 48 hours, and the levels of the different proteins determined by Western blot. C means control. […] In FIG. 6B for the time-course studies, SKBR3 and BT474 cell lines were treated with anti-SP antibody for 24, 48 and 72 hours and protein analyzed by Western blot. […]
# as §1, with “Different intensities of bands were quantified using Image Gauge software, and correct Mr was compared with pre-stained protein standards (BioRad).” left out
# [5] = tested on: EGFR; experiment: EGFR phosphorylation by Western blot in MDA-MB-468 cells; assay type: cell-based; conditions: MDA-MB-468, 100 nM SP, time course
# Protocol: FIG. 8A: to analyze the effects of SP on EGFR activation MDA-MB-468 cell line was treated with SP at 100 nM for the indicated times (in min). The levels of phospho-EGFR and phospho-Erk were determined by Western blot analysis. FIG. 8B: The effects of the inhibition of SP in the activation of EGFR were determined as for HER2. C means control.
# For the analysis of substance P treatment on HER2 and EGFR activation, cells were seeded on dishes and growth until 80% confluence. After 24 hours of fetal deprivation, cells were treated at the indicated times with 100 nM SP. Cells were wash two times with cold PBS and rapidly frozen in a −80° C. freezer until protein extraction. […]
# as §1
compound,measurement,setting,value
CC(=O)NC1(c2ccccc2)CCN(CC[C@H](CN(C)C(=O)c2ccccc2)c2ccc(Cl)c(Cl)c2)CC1 [SR 48968],reduction of BCC colony formation,[1],60%
CC(=O)N[C@@H]1[C@@H](O)[C@H](O)[C@@H](CO)O[C@H]1NC(=O)C[C@@H]1NC(=O)[C@H](CC(C)C)NC(=O)[C@@H]2CNC(=O)C[C@H](NC1=O)C(=O)N[C@@H](Cc1c[nH]c3ccccc13)C(=O)N[C@@H](Cc1ccccc1)C(=O)N2 [MEN 11420] (cyclo(D(NH(β-GlcNAc))DWF[Dap]L); lactam 2-5),proliferation of tumor cell line MDA-MB-231,[2],induced an inhibition of proliferation
Arg-Pro-Lys-Pro-Gln-Gln-Phe-Phe-Gly-Leu-Met [substance P],p27/cyclin D1 ratio,[3],caused a decrease in p27/cyclin D1 ratio
same,transactivation of HER2,[4],induces transactivation of HER2
same,activation of EGFR (phospho-EGFR),[5],"Activation of EGFR was observed at 2 min, with a second activation point at minute 6"
Cc1ccc(CC(=O)N(C)[C@H](Cc2ccc3ccccc3c2)C(=O)N[C@@H]2CCCC[C@@H]2NC(=O)c2c[nH]c3ccccc23)cc1 [MEN 11467],proliferation of tumor cell line MDA-MB-231,[2],induced an inhibition of proliferation
